# ChEMBL document CHEMBL4118101 (Bioorg Med Chem, 2018)
# Active and inactive are the calls of the source. The calls are words filed in the database; no cut-off is given here.
# Columns and labels:
# Candida parapsilosis [1] = experiment: Antifungal activity against Candida parapsilosis ATCC 22019 measured after 48 hrs by CLSI M27-A3 protocol based method; assay type: functional; settings: Lodderomyces parapsilosis, ATCC 22019, 48 h
# Nakaseomyces glabratus [2] = experiment: Antifungal activity against Candida glabrata isolate CG1 measured after 48 hrs by CLSI M27-A3 protocol based method; assay type: functional; settings: Nakaseomyces glabratus, 48 h; read-out: MIC
# Candida parapsilosis [3] = experiment: Fungistatic activity against Candida parapsilosis ATCC 22019 up to 4 times MIC incubated for 24 hrs by time kill assay; assay type: functional, organism-based
# [4] = Hemolytic activity in mouse RBC at 62.5 ug/ml after 1 hr relative to control; assay type: ADME, cell-based, Erythrocyte; settings: mouse red blood cells (erythrocytes), read-out: Activity
# Cryptococcus neoformans [5] = experiment: Antifungal activity against Cryptococcus neoformans isolate CN2 measured after 48 hrs by CLSI M27-A3 protocol based method; assay type: functional; settings: Cryptococcus neoformans, isolate CN2, 48 h; read-out: MIC
# Candida albicans [6] = experiment: Antifungal activity against fluconazole/ITC-resistant Candida albicans ATCC 90819 measured after 48 hrs by CLSI M27-A3 protocol based method; assay type: functional; settings: Candida albicans, ATCC 90819, 48 h; read-out: MIC
# Candida parapsilosis [7] = experiment: Antifungal activity against Candida parapsilosis isolate CP3 measured after 48 hrs by CLSI M27-A3 protocol based method; assay type: functional; settings: Lodderomyces parapsilosis, isolate CP3, 48 h
# [8] = Hemolytic activity in mouse RBC at 3.9 ug/ml after 1 hr relative to control; assay type: ADME, cell-based, Erythrocyte; settings: mouse red blood cells (erythrocytes), read-out: Activity
# [9] = Hemolytic activity in mouse RBC at 7.8 ug/ml after 1 hr relative to control; assay type: ADME, cell-based, Erythrocyte; settings: mouse red blood cells (erythrocytes), read-out: Activity
# [10] = Hemolytic activity in mouse RBC at 0.48 ug/ml after 1 hr relative to control; assay type: ADME, cell-based, Erythrocyte; settings: mouse red blood cells (erythrocytes), read-out: Activity
# Candida albicans [11] = experiment: Antifungal activity against fluconazole/ITC-resistant Candida albicans ATCC MYA-1237 measured after 48 hrs by CLSI M27-A3 protocol based method; assay type: functional; settings: Candida albicans, ATCC MYA-1237, 48 h; read-out: MIC
# [12] = Hemolytic activity in mouse RBC at 1.95 ug/ml after 1 hr relative to control; assay type: ADME, cell-based, Erythrocyte; settings: mouse red blood cells (erythrocytes), at 1.95 µg/mL, read-out: Activity
# [13] = Hemolytic activity in mouse RBC at 31.3 ug/ml after 1 hr relative to control; assay type: ADME, cell-based, Erythrocyte; settings: mouse red blood cells (erythrocytes), at 31.3 µg/mL, read-out: Activity
# Nakaseomyces glabratus [14] = experiment: Antifungal activity against Candida glabrata isolate CG3 measured after 48 hrs by CLSI M27-A3 protocol based method; assay type: functional; settings: Nakaseomyces glabratus, 48 h; read-out: MIC
# Candida albicans [15] = experiment: Antifungal activity against Candida albicans ATCC 10231 measured after 48 hrs by CLSI M27-A3 protocol based method; assay type: functional; settings: ATCC 10231, 48 h
# HEK293 = experiment: Cytotoxicity against HEK293 cells up to 31 ug/ml after 24 hrs by resazurin based assay; assay type: cell-based; settings: human, hek293, 24 h
# Aspergillus terreus = experiment: Antifungal activity against Aspergillus terreus ATCC MYA-3633 measured after 48 hrs by CLSI M38-A2 protocol based method; assay type: functional; settings: ATCC MYA-3633, 48 h
# Cryptococcus neoformans [16] = experiment: Antifungal activity against Cryptococcus neoformans isolate CN3 measured after 48 hrs by CLSI M27-A3 protocol based method; assay type: functional; settings: Cryptococcus neoformans, isolate CN3, 48 h; read-out: MIC
# [17] = Hemolytic activity in mouse RBC at […] ug/ml after 1 hr relative to control; assay type: ADME, cell-based, Erythrocyte; settings: mouse red blood cells (erythrocytes), read-out: Activity
# Candida albicans [18] = experiment: Fungistatic activity against Candida albicans ATCC 10231 at 4 times MIC incubated for 24 hrs by time kill assay; assay type: functional, organism-based
# Candida albicans [19] = experiment: Antifungal activity against fluconazole/ITC-susceptible Candida albicans ATCC MYA-2310 measured after 48 hrs by CLSI M27-A3 protocol based method; assay type: functional; settings: Candida albicans, ATCC MYA-2310, 48 h; read-out: MIC
# Cryptococcus neoformans [20] = experiment: Antifungal activity against Cryptococcus neoformans isolate CN1 measured after 48 hrs by CLSI M27-A3 protocol based method; assay type: functional; settings: isolate CN1, 48 h
# BEAS-2B = experiment: Cytotoxicity against human BEAS2B cells at 31 ug/ml after 24 hrs by resazurin based assay; assay type: cell-based
# Candida albicans [21] = experiment: Antifungal activity against Candida albicans ATCC 64124 measured after 48 hrs by CLSI M27-A3 protocol based method; assay type: functional; settings: Candida albicans, ATCC 64124, 48 h; read-out: MIC
# Candida parapsilosis [22] = experiment: Antifungal activity against Candida parapsilosis isolate CP1 measured after 48 hrs by CLSI M27-A3 protocol based method; assay type: functional; settings: Lodderomyces parapsilosis, isolate CP1, 48 h
# Candida parapsilosis [23] = experiment: Antifungal activity against Candida parapsilosis isolate CP2 measured after 48 hrs by CLSI M27-A3 protocol based method; assay type: functional; settings: Lodderomyces parapsilosis, isolate CP2, 48 h
# Aspergillus flavus = experiment: Antifungal activity against Aspergillus flavus ATCC MYA-3631 measured after 48 hrs by CLSI M38-A2 protocol based method; assay type: functional; settings: ATCC MYA-3631, 48 h
# A549 = experiment: Cytotoxicity against human A549 cells at 15.5 ug/ml after 24 hrs by resazurin based assay; assay type: cell-based; settings: a549, 24 h
# Nakaseomyces glabratus [24] = experiment: Antifungal activity against Candida glabrata ATCC 2001 measured after 48 hrs by CLSI M27-A3 protocol based method; assay type: functional, CBS 138; settings: Nakaseomyces glabratus, CBS 138, 48 h; read-out: MIC
# Aspergillus nidulans = experiment: Antifungal activity against Aspergillus nidulans ATCC 38163 measured after 48 hrs by CLSI M38-A2 protocol based method; assay type: functional; settings: ATCC 38163, 48 h
# Pichia kudriavzevii = experiment: Antifungal activity against Candida krusei ATCC 6258 measured after 48 hrs by CLSI M27-A3 protocol based method; assay type: functional; settings: Pichia kudriavzevii, ATCC 6258, 48 h
# Candida albicans [25] = experiment: Induction of membrane permeabilization in Candida albicans ATCC 10231 assessed as membrane disruption at 4 times MIC after 1 hr by propidium iodide staining based fluorescence microscopy; assay type: functional, organism-based
# Nakaseomyces glabratus [26] = experiment: Antifungal activity against Candida glabrata isolate CG2 measured after 48 hrs by CLSI M27-A3 protocol based method; assay type: functional; settings: Nakaseomyces glabratus, isolate CG2, 48 h; read-out: MIC
# Candida albicans [27] = experiment: Antifungal activity against fluconazole/ITC-resistant Candida albicans ATCC MYA-1003 measured after 48 hrs by CLSI M27-A3 protocol based method; assay type: functional; settings: Candida albicans, ATCC MYA-1003, 48 h; read-out: MIC
# Candida albicans [28] = experiment: Antifungal activity against fluconazole/ITC-susceptible Candida albicans ATCC MYA-2876 measured after 48 hrs by CLSI M27-A3 protocol based method; assay type: functional; settings: Candida albicans, ATCC MYA-2876, 48 h
compound,measurement,setting,value
CCCCCCCCNCC(O)(Cn1cncn1)c1ccc(F)cc1F (stereo unspecified),MIC,Candida parapsilosis [1],0.16 µM
same,MIC,Nakaseomyces glabratus [2],21.3 µM
same,Activity,Candida parapsilosis [3],Active
same,"hemolysis at 1 h, 62.5 ug/ml",[4],78%
same,MIC,Cryptococcus neoformans [5],10.6 µM
same,MIC,Candida albicans [6],21.3 µM
same,MIC,Candida parapsilosis [7],0.65 µM
same,"hemolysis at 1 h, 3.9 ug/ml",[8],2%
same,"hemolysis at 1 h, 7.8 ug/ml",[9],0%
same,"hemolysis at 1 h, 0.48 ug/ml",[10],2%
same,MIC,Candida albicans [11],42.6 µM
same,"hemolysis at 1 h, 1.95 ug/ml",[12],0%
same,"hemolysis at 1 h, 31.3 ug/ml",[13],9%
same,MIC,Nakaseomyces glabratus [14],42.6 µM
same,MIC,Candida albicans [15],2.7 µM
same,Activity,HEK293,Non-Toxic
same,MIC,Aspergillus terreus,42.6 µM
same,MIC,Cryptococcus neoformans [16],10.6 µM
same,"hemolysis at 1 h, 0.975 ug/ml",[17],2%
same,"hemolysis at 1 h, 15.6 ug/ml",[17],3%
same,Activity,Candida albicans [18],Active
same,MIC,Candida albicans [19],85.4 µM
same,MIC,Cryptococcus neoformans [20],5.3 µM
same,Activity,BEAS-2B,Non-Toxic
same,MIC,Candida albicans [21],> 85.4 µM
same,MIC,Candida parapsilosis [22],1.3 µM
same,MIC,Candida parapsilosis [23],0.33 µM
same,MIC,Aspergillus flavus,> 85.4 µM
same,Activity,A549,Non-Toxic
same,MIC,Nakaseomyces glabratus [24],2.7 to 21.3 µM
same,MIC,Aspergillus nidulans,5.3 µM
same,MIC,Pichia kudriavzevii,2.7 µM
same,Activity,Candida albicans [25],inactive
same,MIC,Nakaseomyces glabratus [26],2.7 µM
same,MIC,Candida albicans [27],85.4 µM
same,MIC,Candida albicans [28],85.4 µM
